# Measurements published in patent US20240165123A1, “USE OF A COMPOUND CONTAINING A TRICYCLIC HETEROARYL GROUP” (CSPC Zhongqi Pharmaceutical Technology (Shijiazhuang) Co., …, priority 2021, published 2024).
# Read-outs that look alike come from different tables or passages of the source.
# Test system: MRL/lpr lupus erythematosus model mice
# Format: in vivo
# Parameters: key to Kidney IHC (IgG) pathological score, bilateral kidneys: product score; 0 negative, 1-3 low, 4-8 medium, 9-12 high
# Settings: prednisone 6 mg/kg QD
# Method: • female MRL/lpr mice aged 4 weeks, number: 50; • female C57BL/6 mice aged 4 weeks, number: 10.
# According to the concentration of the serum anti-ds-DNA antibody, female MRL/lpr mice were randomly divided into five groups: model group: solvent (aqueous solution containing 0.4% Tween 80 and 0.5% methylcellulose) 10 mL/kg BID, positive control group: prednisone 6 mg/kg QD, compound (I) 20, 40 and 60 mg/kg BID groups, the administration volumes respectively: 10 mL/kg. In addition, female C57BL/6 mice served as the normal control group. The animals in the Compound (I) group and the model group were administrated with the medicament or the solvent by gavage twice a day starting from the beginning of five weeks of age with an interval of 8 hours between two administrations; prednisone was administered to the animals by gavage once a day from the beginning of five weeks of age; the administration was totally performed for 17 weeks.
# Two mice in the model group died at 15 and 16 weeks of administration, respectively, and 8 mice remained at the end of the test; one mouse in the compound (I) 20 mg/kg bid group died in the later period of the 16th week of administration, and 9 mice remained at the end of the test; and no death of mice occurred in other groups.
# The skin destructions on the face, ears and back of mice were observed and scored once a week for 17 times totally.
# Scoring system: 1) red swelling and bleeding of the skin; 2) the extent of hair loss and skin dryness; 3) edema; 4) excoriation/corrosion; 5) lichenoid sclerotic plaque and other symptoms. The score of each item was as follows: normal=0 points; slight=1 point; moderate=2 points; severe=3 points. The severity of skin destruction was determined according to the total score of each evaluated symptom. […]
# The lymph nodes of MRL/lpr mice were scored once a week for a total of 17 times during the test.
# According to the lymph node diameter (cm), the score values were 0-6 points: • 0 point: normal; • 1 point: small (the diameter at one location of points on both sides was less than 1 cm); • 2 points: small (the diameters at two location of points on both sides were less than 1 cm); • 3 points: small (the diameters at three location of points on both sides were less than 1 cm); • 4 points: large (the diameter at one location of points on both sides was larger than 1 cm, the diameters at the other two location of points on both sides were less than 1 cm); • 5 points: large (the diameters at two location of points on both sides were larger than 1 cm, and the diameter at the other location of points on both sides was less than 1 cm); • 6 points: large (the diameters at three location of points on both sides were greater than 1 cm). […]
# Kidney HE scoring criteria: […]
# During the test, the concentration of serum anti-ds-DNA antibody of mice were detected every 4 weeks for 16 weeks.
# At the end of the test, the serum cytokine levels of mice were detected by ELISA. […] See Table 25 and FIG. 17 for details.
smiles,measurement,setting,value
"C[C@]12C=CC(=O)C=C1CC[C@@H]1[C@@H]2C(=O)C[C@@]2(C)[C@H]1CC[C@]2(O)C(=O)CO [prednisone, reference compound]",Area under the urine protein curve,16 weeks,2360.38 ± 161.30 wk*mg/L
same,"Kidney HE pathological score of both kidneys, Activity index",after 17 weeks of treatment,1.80 ± 0.36
same,"Kidney HE pathological score of both kidneys, Chronicity index",after 17 weeks of treatment,4.90 ± 0.62
same,"Kidney HE pathological score of both kidneys, Tubulointerstitial lesions",after 17 weeks of treatment,3.60 ± 0.45
same,"Kidney IHC (IgG) pathological score, bilateral kidneys",after 17 weeks of treatment,7.90 ± 0.77
same,Skin HE pathological score,after 17 weeks of treatment,1.80 ± 0.36
same,Total kidney weight,after 17 weeks of treatment,0.3526 ± 0.01 g
same,Total kidney weight/body weight %,after 17 weeks of treatment,1.1050 ± 0.04%
same,IL-6 concentration in serum (ELISA),end of the test,19.91 ± 10.43 pg/mL
same,Spleen weight,end of the test,0.0756 ± 0.01 g
same,Spleen weight/body weight %,end of the test,0.2362 ± 0.03 %
same,TNF-alpha concentration in serum (ELISA),end of the test,5.50 ± 1.13 pg/mL
same,Total lymph node weight,end of the test,0.1123 ± 0.03 g
same,Total lymph node weight/body weight %,end of the test,0.3445 ± 0.08 %
same,Concentration of serum anti-ds-DNA antibody,week 0,3.26 ± 0.30 µg/mL
same,Lymph node score,week 0,0.0 ± 0.00
same,Skin score (skin destruction),week 0,0.0 ± 0.00
same,Concentration of serum anti-ds-DNA antibody,week 4,183.55 ± 28.07 µg/mL
same,Skin score (skin destruction),week 4,0.0 ± 0.00
same,Lymph node score,week 6,0.0 ± 0.00
same,Lymph node score,week 7,0.2 ± 0.13
same,Concentration of serum anti-ds-DNA antibody,week 8,363.75 ± 18.45 µg/mL
same,Skin score (skin destruction),week 8,0.3 ± 0.15
same,Lymph node score,week 9,0.3 ± 0.15
same,Lymph node score,week 11,0.0 ± 0.00
same,Concentration of serum anti-ds-DNA antibody,week 12,619.78 ± 25.47 µg/mL
same,Lymph node score,week 12,0.0 ± 0.00
same,Skin score (skin destruction),week 12,0.3 ± 0.15
same,Skin score (skin destruction),week 14,0.2 ± 0.13
same,Concentration of serum anti-ds-DNA antibody,week 16,606.66 ± 26.65 µg/mL
same,Skin score (skin destruction),week 16,0.1 ± 0.10
same,Lymph node score,week 17,0.0 ± 0.00
same,Skin score (skin destruction),week 17,0.1 ± 0.10
